Assay results from ChEMBL document CHEMBL3885861, “Open TG-GATES”.

Organism: Rattus norvegicus
Assay: Open TG-GATES - Regimen: Daily Repeat
Type: toxicity, organism-based, Sprague-Dawley
Set-up: regimen Daily Repeat, gender Male, age 6 weeks
Conditions: in vivo, po, 3 mg/kg, route gavage, dose level Low; for APTT / Bas / Eos / Fbg / Hb / Ht / Lym / MCH / MCHC / MCV / Mono / Neu / PT / Plat / RBC / Ret / WBC: tissue Blood; for KIDNEY_L / KIDNEY_R / KIDNEY_TOTAL: tissue Kidney; for LIVER: tissue Liver; for A/G / ALP / ALT / AST / BUN / CRE / Ca / Cl / DBIL / GLC / IP / K / LDH / Na / PL / RALB / TBIL / TC / TG / TP / gamma-GTP: tissue Plasma

SMILES: CN(C)CCC(c1ccc(Cl)cc1)c1ccccn1 (configuration not stated) [CHLORPHENIRAMINE]
- TERMINAL_BW (72 h, time 3 day): 233.5 g
- APTT (72 h, time 3 day): 18.3 s
- Bas (72 h, time 3 day): 0.2%
- Eos (72 h, time 3 day): 1%
- Fbg (72 h, time 3 day): 299.4 mg/dL
- Hb (72 h, time 3 day): 13.3 g/dL
- Ht (72 h, time 3 day): 41.5%
- Lym (72 h, time 3 day): 80.4%
- MCH (72 h, time 3 day): 21 pg
- MCHC (72 h, time 3 day): 32.1%
- MCV (72 h, time 3 day): 65.5 fL
- Mono (72 h, time 3 day): 2.8%
- Neu (72 h, time 3 day): 15.2%
- PT (72 h, time 3 day): 14.5 s
- Plat (72 h, time 3 day): 124 x10_4/uL
- RBC (72 h, time 3 day): 634 x10_4/ul
- Ret (72 h, time 3 day): 7.1%
- WBC (72 h, time 3 day): 89 x10_2/uL
- KIDNEY_L (72 h, time 3 day): 1 g
- KIDNEY_R (72 h, time 3 day): 0.9 g
- KIDNEY_TOTAL (72 h, time 3 day): 1.9 g
- LIVER (72 h, time 3 day): 11.3 g
- A/G (72 h, time 3 day): 0.8
- ALP (72 h, time 3 day): 1834.4 IU/L
- ALT (72 h, time 3 day): 44.4 IU/L
- AST (72 h, time 3 day): 66.4 IU/L
- BUN (72 h, time 3 day): 16.2 mg/dL
- CRE (72 h, time 3 day): 0.2 mg/dL
- Ca (72 h, time 3 day): 10.6 mg/dL
- Cl (72 h, time 3 day): 106.2 meq/L
- DBIL (72 h, time 3 day): 0.018 mg/dL
- GLC (72 h, time 3 day): 183.6 mg/dL
- IP (72 h, time 3 day): 8.3 mg/dL
- K (72 h, time 3 day): 4.3 meq/L
- LDH (72 h, time 3 day): 94.6 IU/L
- Na (72 h, time 3 day): 142 meq/L
- PL (72 h, time 3 day): 162.6 mg/dL
- RALB (72 h, time 3 day): 2.7 g/dL
- TBIL (72 h, time 3 day): 0.04 mg/dL
- TC (72 h, time 3 day): 86.6 mg/dL
- TG (72 h, time 3 day): 109.8 mg/dL
- TP (72 h, time 3 day): 5.8 g/dL
- gamma-GTP (72 h, time 3 day): 1 IU/L
- TERMINAL_BW ([…], time 7 day): 265.1 g
- TERMINAL_BW ([…], time 14 day): 330.4 g
- TERMINAL_BW ([…], time 28 day): 400.2 g
- APTT ([…], time 7 day): 19.8 s
- Bas ([…], time 7 day): 0%
- Eos ([…], time 7 day): 1%
- Fbg ([…], time 7 day): 289.8 mg/dL
- Hb ([…], time 7 day): 13.7 g/dL
- Ht ([…], time 7 day): 41.7%
- Lym ([…], time 7 day): 77.2%
- MCH ([…], time 7 day): 20.6 pg
- MCHC ([…], time 7 day): 32.8%
- MCV ([…], time 7 day): 62.8 fL
- Mono ([…], time 7 day): 2.6%
- Neu ([…], time 7 day): 18.4%
- PT ([…], time 7 day): 14 s
- Plat ([…], time 7 day): 116 x10_4/uL
- RBC ([…], time 7 day): 665 x10_4/ul
- Ret ([…], time 7 day): 6%
- WBC ([…], time 7 day): 80.2 x10_2/uL
- APTT ([…], time 14 day): 18.1 s
- Bas ([…], time 14 day): 0.2%
- Eos ([…], time 14 day): 1%
- Fbg ([…], time 14 day): 299 mg/dL
- Hb ([…], time 14 day): 14.4 g/dL
- Ht ([…], time 14 day): 43.5%
- Lym ([…], time 14 day): 80.2%
- MCH ([…], time 14 day): 20.5 pg
- MCHC ([…], time 14 day): 33.1%
- MCV ([…], time 14 day): 61.9 fL
- Mono ([…], time 14 day): 2.8%
- Neu ([…], time 14 day): 15%
- PT ([…], time 14 day): 14.4 s
- Plat ([…], time 14 day): 119.7 x10_4/uL
- RBC ([…], time 14 day): 703.8 x10_4/ul
- Ret ([…], time 14 day): 4.6%
- WBC ([…], time 14 day): 85 x10_2/uL
- APTT ([…], time 28 day): 17.7 s
- Bas ([…], time 28 day): 0.4%
- Eos ([…], time 28 day): 1%
- Fbg ([…], time 28 day): 281.2 mg/dL
- Hb ([…], time 28 day): 15.6 g/dL
- Ht ([…], time 28 day): 46.5%
- Lym ([…], time 28 day): 77.4%
- MCH ([…], time 28 day): 19 pg
- MCHC ([…], time 28 day): 33.5%
- MCV ([…], time 28 day): 56.8 fL
- Mono ([…], time 28 day): 2.4%
- Neu ([…], time 28 day): 18%
- PT ([…], time 28 day): 14.5 s
- Plat ([…], time 28 day): 107.8 x10_4/uL
- RBC ([…], time 28 day): 819.6 x10_4/ul
- Ret ([…], time 28 day): 2.4%
- WBC ([…], time 28 day): 82.8 x10_2/uL
- KIDNEY_L ([…], time 7 day): 1.1 g
- KIDNEY_R ([…], time 7 day): 1.1 g
- KIDNEY_TOTAL ([…], time 7 day): 2.2 g
- KIDNEY_L ([…], time 14 day): 1.2 g
- KIDNEY_R ([…], time 14 day): 1.2 g
- KIDNEY_TOTAL ([…], time 14 day): 2.5 g
- KIDNEY_L ([…], time 28 day): 1.4 g
- KIDNEY_R ([…], time 28 day): 1.4 g
- KIDNEY_TOTAL ([…], time 28 day): 2.8 g
- LIVER ([…], time 7 day): 12.6 g
- LIVER ([…], time 14 day): 14.8 g
- LIVER ([…], time 28 day): 15.6 g
- A/G ([…], time 7 day): 0.8
- ALP ([…], time 7 day): 1694.2 IU/L
- ALT ([…], time 7 day): 41.6 IU/L
- AST ([…], time 7 day): 68 IU/L
- BUN ([…], time 7 day): 15.6 mg/dL
- CRE ([…], time 7 day): 0.2 mg/dL
- Ca ([…], time 7 day): 11.4 mg/dL
- Cl ([…], time 7 day): 106.2 meq/L
- DBIL ([…], time 7 day): 0.014 mg/dL
- GLC ([…], time 7 day): 194 mg/dL
- IP ([…], time 7 day): 7.7 mg/dL
- K ([…], time 7 day): 4.2 meq/L
- LDH ([…], time 7 day): 93 IU/L
- Na ([…], time 7 day): 144 meq/L
- PL ([…], time 7 day): 159.8 mg/dL
- RALB ([…], time 7 day): 2.7 g/dL
- TBIL ([…], time 7 day): 0.032 mg/dL
- TC ([…], time 7 day): 77.8 mg/dL
- TG ([…], time 7 day): 135 mg/dL
- TP ([…], time 7 day): 6 g/dL
- gamma-GTP ([…], time 7 day): 1 IU/L
- A/G ([…], time 14 day): 0.8
- ALP ([…], time 14 day): 1670 IU/L
- ALT ([…], time 14 day): 39.2 IU/L
- AST ([…], time 14 day): 64.2 IU/L
- BUN ([…], time 14 day): 16.4 mg/dL
- CRE ([…], time 14 day): 0.2 mg/dL
- Ca ([…], time 14 day): 11.1 mg/dL
- Cl ([…], time 14 day): 105.2 meq/L
- DBIL ([…], time 14 day): 0.02 mg/dL
- GLC ([…], time 14 day): 194 mg/dL
- IP ([…], time 14 day): 7.7 mg/dL
- K ([…], time 14 day): 4.1 meq/L
- LDH ([…], time 14 day): 103.6 IU/L
- Na ([…], time 14 day): 143.4 meq/L
- PL ([…], time 14 day): 160.8 mg/dL
- RALB ([…], time 14 day): 2.8 g/dL
- TBIL ([…], time 14 day): 0.034 mg/dL
- TC ([…], time 14 day): 77 mg/dL
- TG ([…], time 14 day): 153 mg/dL
- TP ([…], time 14 day): 6.1 g/dL
- gamma-GTP ([…], time 14 day): 1 IU/L
- A/G ([…], time 28 day): 0.8
- ALP ([…], time 28 day): 1190.6 IU/L
- ALT ([…], time 28 day): 38.6 IU/L
- AST ([…], time 28 day): 63.8 IU/L
- BUN ([…], time 28 day): 17 mg/dL
- CRE ([…], time 28 day): 0.2 mg/dL
- Ca ([…], time 28 day): 10.6 mg/dL
- Cl ([…], time 28 day): 107.6 meq/L
- DBIL ([…], time 28 day): 0.014 mg/dL
- GLC ([…], time 28 day): 186.2 mg/dL
- IP ([…], time 28 day): 6.2 mg/dL
- K ([…], time 28 day): 4 meq/L
- LDH ([…], time 28 day): 70.4 IU/L
- Na ([…], time 28 day): 145 meq/L
- PL ([…], time 28 day): 156.2 mg/dL
- RALB ([…], time 28 day): 2.8 g/dL
- TBIL ([…], time 28 day): 0.028 mg/dL
- TC ([…], time 28 day): 75.2 mg/dL
- TG ([…], time 28 day): 148 mg/dL
- TP ([…], time 28 day): 6.4 g/dL
- gamma-GTP ([…], time 28 day): 0.8 IU/L
